In patent US11571418B2, “Platinum compounds that inhibit constitutive STAT3 signaling and induce cell cycle arrest and apoptosis of malignant cells” (H. LEE MOFFITT CANCER CENTER AND RESEARCH INSTITUTE, INC., priority 2011, dated 2023):
pIC50: −log10 of the molar value.

What was measured:
[1] = target: T1, Stat3 (Mus musculus, UniProt P42227); experiment: In vitro Stat3 DNA-binding activity assay, EMSA with hSIE probe
T1 construct: Nuclear extract preparation from NIH3T3 stimulated by rhIL-6, NIH3T3/hEGFR stimulated by rhEGF; endogenous in cells; host or cells: NIH3T3/hEGFR fibroblasts stimulated with rhEGF (nuclear extract)
Method: FIGS. 1A-1E. Inhibition of in vitro Stat3 DNA-binding activity by a platinum complex. Nuclear extracts or cell lysates containing activated Stat1, Stat3 and Stat5, or E2F1 prepared from NIH3T3/hEGFR that are stimulated with EGF or Sf-9 insect cells that are infected with baculovirus expressing Stat1, Stat3, Stat5, or E2F1, respectively, were treated with or without the indicated concentrations of platinum complex, PLATINUM-401 or Cisplatin, for 30 min at room temperature prior to incubation with radiolabeled oligonucleotide probes, and subjected to EMSA analysis. (FIG. 1A) (i) Stat1 and Stat3 binding activities to hSIE probe, (ii) Stat1 and Stat5 binding activities to MGFe probe, and (iii) plot of % oligonucleotide probe-STAT:STAT complexes versus concentration of PLATINUM-401. […] Positions of STAT: STAT-DNA complexes in gel are labeled. In (A) to (C), the control lanes represent DMSO (vehicle)-treatment.
Nuclear extract preparation and gel shift assays—Nuclear extract preparation from NIH3T3 stimulated by rhIL-6, NIH3T3/hEGFR stimulated by rhEGF, v-Src-transformed fibroblasts (NIH3T3/v-Src) or tumor cell lines and electrophoretic mobility shift assay were carried out as previously described (Turkson et al., 1998; Garcia et al., 1997; Yu et al., 1995). The ^32P-labeled oligonucleotide probes used are hSIE (high affinity sis-inducible element from the c-fos gene, m67 variant, 5′-[…]) (SEQ ID NO:1) that binds Stat1 and Stat3 (Garcia et al., 1997; Wagner et al., 1990) and MGFe (mammary gland factor element from the bovine β-casein gene promoter, 5′-AGATTTCTAGGAATTCAA) (SEQ ID NO:2) for Stat1 and Stat5 binding (49,50). Except where indicated, inhibitor compound was pre-incubated with the nuclear extract for 30 min at room temperature prior to incubation with radiolabeled probe.
Compounds from the NCI 2000 diversity set were screened for inhibition of Stat3 signaling in an in vitro DNA-binding activity assay based on analysis by electrophoretic mobility shift assay (EMSA). A platinum (IV) complex, PLATINUM-401 (NSC 295558) (FIG. 1E), was identified as a potent inhibitor of Stat3 and was further characterized for its anti-Stat3 properties. In the in vitro DNA-binding activity assay, nuclear extracts of equal total protein containing active Stat1, Stat3 and Stat5 were pre-incubated with different concentrations of PLATINUM-401 for 30 min prior to incubation with a [^32P]-labeled oligonucleotide, the m67 high affinity sis-inducible element (hSIE) probe that binds Stat1 and Stat3, or the mammary gland factor element (MGFe) that binds Stat1 and Stat5. Samples were then subjected to EMSA.

[2] = target: T2, E2F1 (Homo sapiens, UniProt Q01094); experiment: Non-STAT protein added to activated Stat3 before EMSA (titration of compound); assay type: binding
T2 construct: made in house; host or cells: Sf-9 insect cells infected with baculovirus

[3] = target: T3, inactive Stat3 monomer (Homo sapiens, UniProt P40763); experiment: Inactive STAT monomer added to activated Stat3 before EMSA (titration of compound); assay type: binding; settings: monomer added to activated Stat3, pre-incubated with compound 30 min
T3 construct: made in house; host or cells: Sf-9 insect cells infected with recombinant baculovirus
Description: The interaction of PLATINUM-401 with Stat3 protein is independent of the activation status of the protein.

[4] = tested on: Cyclin D1; experiment: Cyclin D1 detection, in situ and Western blot; assay type: cell-based, human; settings: MDA-MB-435, 48 h
Method: FIGS. 8A and 8B. Inhibition of Cyclin D1 and Bcl-xL induction by PLATINUM-401. Viral Src-transformed fibroblasts (NIH3T3/v-Src) and human breast cancer cell line MDA-MB-435 that contain constitutively-activated Stat3 were treated with or without platinum complex for 48 h. Cells were processed for immunohistochemistry, or cell lysates were prepared from cells and subjected to 5% PAGE and Western blot analysis, as indicated in “Materials and Methods.” (FIG. 8A) Detection of Cyclin D1; (FIG. 8B) Detection of Bcl-xL. Positions of Cyclin D1 and Bcl-xL proteins are shown. Beta-actin levels are shown for normalizing for equal total protein. Data are representative of 3 independent determinations.
Western blot—Whole-cell lysates were prepared in boiling sodium dodecyl sulfate (SDS) sample-loading buffer to extract total proteins from the cytoplasm and nucleus. Equivalent amounts of total cellular protein were electrophoresed on an SDS-10% polyacrylamide gel and transferred onto nitrocellulose membranes. Probing of nitrocellulose membranes with primary antibodies and detection of horseradish peroxidase-conjugated secondary antibodies by enhanced chemiluminescence (Amersham, Piscataway, N.J.) were performed as previously described (Garcia et al., 2001; Turkson et al., 2004b; Zhang et al., 2000). […]

T1 sequence (P42227 2-770 limits assumed): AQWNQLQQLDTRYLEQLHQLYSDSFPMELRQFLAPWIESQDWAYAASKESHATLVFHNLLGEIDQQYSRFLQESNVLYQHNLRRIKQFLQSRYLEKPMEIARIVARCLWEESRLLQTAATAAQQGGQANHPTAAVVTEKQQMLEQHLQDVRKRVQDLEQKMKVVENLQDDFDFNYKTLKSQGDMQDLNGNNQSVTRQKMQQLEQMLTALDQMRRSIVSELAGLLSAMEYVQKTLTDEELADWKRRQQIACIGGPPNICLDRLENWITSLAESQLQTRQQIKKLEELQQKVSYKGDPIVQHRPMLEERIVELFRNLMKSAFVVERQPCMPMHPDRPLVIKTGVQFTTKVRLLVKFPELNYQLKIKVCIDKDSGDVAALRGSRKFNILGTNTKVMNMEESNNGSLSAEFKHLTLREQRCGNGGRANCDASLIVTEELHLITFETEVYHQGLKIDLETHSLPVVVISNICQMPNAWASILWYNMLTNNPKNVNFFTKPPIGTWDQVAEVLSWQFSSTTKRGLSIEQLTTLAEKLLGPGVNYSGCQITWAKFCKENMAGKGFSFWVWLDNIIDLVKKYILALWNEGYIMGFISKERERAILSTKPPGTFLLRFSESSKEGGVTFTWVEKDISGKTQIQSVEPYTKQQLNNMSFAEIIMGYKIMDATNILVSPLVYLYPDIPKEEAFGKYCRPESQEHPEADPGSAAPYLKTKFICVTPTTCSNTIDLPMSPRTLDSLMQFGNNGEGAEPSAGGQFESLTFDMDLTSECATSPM
T2 sequence (Q01094 whole entry, species assumed): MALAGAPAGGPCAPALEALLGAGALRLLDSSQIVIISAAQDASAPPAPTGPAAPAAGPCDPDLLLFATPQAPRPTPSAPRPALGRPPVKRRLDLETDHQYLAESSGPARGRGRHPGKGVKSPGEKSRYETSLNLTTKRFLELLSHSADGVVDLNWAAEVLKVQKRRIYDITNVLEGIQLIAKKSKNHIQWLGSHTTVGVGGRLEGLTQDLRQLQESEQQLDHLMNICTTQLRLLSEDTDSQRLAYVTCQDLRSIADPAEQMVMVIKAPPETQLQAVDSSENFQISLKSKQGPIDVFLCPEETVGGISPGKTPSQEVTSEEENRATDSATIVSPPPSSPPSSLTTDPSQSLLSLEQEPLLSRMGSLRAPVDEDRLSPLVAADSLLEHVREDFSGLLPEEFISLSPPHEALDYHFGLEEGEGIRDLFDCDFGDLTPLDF
T3 sequence (P40763 whole entry): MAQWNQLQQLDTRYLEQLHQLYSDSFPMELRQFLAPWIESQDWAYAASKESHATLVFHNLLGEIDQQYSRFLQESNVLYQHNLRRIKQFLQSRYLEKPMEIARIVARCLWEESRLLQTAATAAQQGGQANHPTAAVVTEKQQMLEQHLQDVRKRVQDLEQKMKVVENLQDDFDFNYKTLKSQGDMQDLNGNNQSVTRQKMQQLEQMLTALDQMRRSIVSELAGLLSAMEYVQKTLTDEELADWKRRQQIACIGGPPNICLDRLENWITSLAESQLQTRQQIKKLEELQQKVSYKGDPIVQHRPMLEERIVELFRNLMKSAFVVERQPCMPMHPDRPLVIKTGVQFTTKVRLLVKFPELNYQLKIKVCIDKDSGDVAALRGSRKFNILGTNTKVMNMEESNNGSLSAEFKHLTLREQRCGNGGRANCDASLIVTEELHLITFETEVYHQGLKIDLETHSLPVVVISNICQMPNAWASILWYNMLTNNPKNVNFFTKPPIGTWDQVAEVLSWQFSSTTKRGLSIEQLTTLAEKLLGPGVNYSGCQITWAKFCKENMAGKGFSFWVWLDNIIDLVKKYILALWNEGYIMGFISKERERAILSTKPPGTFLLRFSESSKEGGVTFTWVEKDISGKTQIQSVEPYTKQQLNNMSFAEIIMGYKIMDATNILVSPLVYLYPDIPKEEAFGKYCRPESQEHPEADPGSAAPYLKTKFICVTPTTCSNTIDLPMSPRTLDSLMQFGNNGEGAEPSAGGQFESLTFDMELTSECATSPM

CC(O)CN1CCN(CC(C)O)CC1 (stereo not shown) [PLATINUM-401]
pIC50 [1]: 5.85 | effect on Stat3 DNA-binding activity at low protein amount ([1]; 1 μg protein): strong and a dose-dependent decrease | type of inhibition of Stat3 DNA-binding activity (Lineweaver-Burke plot) ([1]; 0.3-2 μM compound, varied hSIE probe): non-competitive | effect on Stat3 DNA-binding activity at higher protein levels ([1]; 2-3 μg protein): diminished effect | effect on Stat3 DNA-binding activity when protein is first bound to DNA ([1]; Stat3 incubated with hSIE probe 30 min, then compound 3-30 min): fails to disrupt | effect on DNA-binding activity of Stat3:Stat3 homodimer ([1]; pre-incubated 30 min before hSIE probe): dose-dependent reduction | effect on Stat3 DNA-binding activity on simultaneous addition of compound and hSIE probe ([1]; simultaneous addition, data not shown): inhibition | influence of E2F1 protein on compound's effect on Stat3 DNA-binding activity [2]: failed to significantly influence | interaction with inactive Stat3 monomer [3]: interacts | Cyclin D1 level [4]: significantly diminished
